# Assay results published in patent publication EP0441226A1, “(cyanomethyl)pyridines useful as PAF antagonists” (J. URIACH & CIA. S.A., priority 1990, dated 1991).
# Counter-ions that a name gives are not always drawn.
# System: hypotension induced by PAF
# Assay: Inhibition of the hypotensive effect induced by PAF in normotense rats
# Format: in vivo, Sprage Dawley rats
# Details: Rattus norvegicus, iv, read-out: ID50
# Description: Inhibition of the hypotensive effect induced by PAF in normotense rats.
# Male Sprage Dawley rats, of 180-220 g of weight, anesthetized with sodium pentobarbital (50 mg/Kg, i.p. 1 mU100 g) have been used. In order to measure the average arterial pressure, a polyethylene catheter is introduced into the carotid artery. The arterial pressure is recorded with the help of a transducer connected with a R611 Beckman polygraph. The tested compounds are administered through the femoral vein 3 min. before the injection of PAF (0.5 mcg/Kg, i.v.).
row,Compound,ED50
1,"N#CC(c1cccnc1)N1CCN(C(=O)Cc2ccccc2)CC1 (stereo not shown) [Compound 5, 1-(Phenylacetyl)-4-(3-pyridylcyanomethyl)piperazine]",1.5 mg/kg
2,"N#CC(c1cccnc1)N1CCN(C(=O)Cc2cccc3ccccc23)CC1 (stereo not shown) [Compound 2, 1-(1-Naphthylacetyl)-4-(3-pyridylcyanomethyl)piperazine]",1.3 mg/kg
3,"Cl.Cl.Cl.N#CC(c1cccnc1)N1CCN(C(=O)Cc2c[nH]c3ccccc23)CC1 (stereo not shown) [Compound 33, 1-(3-indolylacetyl)-4-(3-pyridylcyanomethyl)piperazine, trihydrochloride]",3.5 mg/kg

# Same assay, conditions: Rattus norvegicus, iv; i.v. (femoral vein) 3 min before PAF 0.5 mcg/Kg i.v.; anesthetized male rats; mean arterial pressure; read-out: ID50 (the source's name)
row,Compound,ED50
1,"N#CC(c1cccnc1)N1CCN(C(=O)CC(c2ccccc2)c2ccccc2)CC1 (stereo not shown) [Compound 12, 1-(3,3-Diphenylpropanoyl)-4-(3-pyridylcyanomethyl)piperazine]",0.016 mg/kg
2,"COc1cc(C(=O)N2CCN(C(C#N)c3cccnc3)CC2)cc(OC)c1OC.Cl.Cl (stereo not shown) [Compound 22, 1-(3,4,5-Trimethoxybenzoyl)-4-(3-pyridylcyanomethyl)piperazine, dihydrochloride]",4.3 mg/kg
3,"N#CC(c1cccnc1)N1CCN(C(=O)CCNC(c2ccccc2)c2ccccc2)CC1 (stereo not shown) [Compound 47, 1-(3-(N-(diphenylmethyl)amino)propanoyl)-4-(3-pyridylcyanomethyl) piperazine]",0.025 mg/kg
4,"CC(C(=O)N1CCN(C(C#N)c2cccnc2)CC1)c1ccccc1.Cl.Cl (stereo not shown) [Compound 14, 1-(2-Phenylpropanoyl)-4-(3-pyridylcyanomethyl)piperazine, dihydrochloride]",0.26 mg/kg
5,"Cl.Cl.N#CC(c1cccnc1)N1CCN(C(=O)C(O)c2ccccc2)CC1 (stereo not shown) [Compound 27, 1-(2-phenyl-2-hydroxyacetyl)-4-(3-pyridylcyanomethyl)piperazine, dihydrochloride]",1.1 mg/kg
6,"Cl.Cl.Cl.N#CC(c1cccnc1)N1CCN(C(=O)CN(Cc2ccccc2)Cc2ccccc2)CC1 (stereo not shown) [Compound 49, 1-(N,N-dibenzylaminoacetyl)-4-(3-pyridylcyanomethyl)piperazine, trihydrochloride]",1.7 mg/kg
7,"COc1ccc(C(CC(=O)N2CCN(C(C#N)c3cccnc3)CC2)c2ccc(OC)cc2)cc1 (stereo not shown) [Compound 25, 1-(3,3-bis(4-methoxyphenyl)propanoyl)-4-(3-pyridylcyanomethyl) piperazine]",0.19 mg/kg
8,"N#CC(c1cccnc1)N1CCN(CCNC(=O)C(c2ccccc2)c2ccccc2)CC1 (stereo not shown) [Compound 62, 1-(2-(N-(diphenylacetyl)amino)ethyl)-4-(3-pyridylcyanomethyl)piperazine]",0.29 mg/kg
9,"Cl.Cl.N#CC(c1cccnc1)N1CCN(C(=O)OCC(c2ccccc2)c2ccccc2)CC1 (stereo not shown) [Compound 31, 1-((2,2-diphenylethoxy)carbonyl)-4-(3-pyridylcyanomethyl)piperazine, dihydrochloride]",0.078 mg/kg
10,"N#CC(c1ccncc1)N1CCN(C(=O)CCNC(c2ccccc2)c2ccccc2)CC1 (stereo not shown) [Compound 48, 1-(3-(N-(diphenylmethyl)amino)propanoyl)-4-(4-pyridylcyanomethyl)piperazine]",0.037 mg/kg
11,"Cl.Cl.N#CC(c1cccnc1)N1CCN(C(=O)C(c2ccccc2)c2ccccc2)CC1 (stereo not shown) [Compound 9, 1-(Diphenylacetyl)-4-(3-pyridylcyanomethyl)piperazine, dihydrochloride]",0.11 mg/kg
12,"Cl.Cl.N#CC(c1cccnc1)N1CCN(C(=O)c2ccc3ccccc3c2)CC1 (stereo not shown) [Compound 1, 1-(2-Naphthoyl)-4-(3-pyridylcyanomethyl)piperazine, dihydrochloride]",5 mg/kg
13,"N#CC(c1cccnc1)N1CCN(C(=O)CNC(c2ccccc2)c2ccccc2)CC1 (stereo not shown) [Compound 44, 1-(N-(diphenylmethyl)aminoacetyl)-4-(3-pyridylcyanomethyl) piperazine, trihydrochloride]",0.023 mg/kg
14,"CC(C(=O)N1CCN(C(C#N)c2cccnc2)CC1)(c1ccccc1)c1ccccc1.Cl.Cl (stereo not shown) [Compound 8, 1-(2,2-Diphenylpropanoyl)-4-(3-pyridylcyanomethyl)piperazine, dihydrochloride]",0.14 mg/kg
15,"N#CC(c1cccnc1)N1CCN(C(=O)C(Cc2ccccc2)c2ccccc2)CC1 (stereo not shown) [Compound 10, 1-(2,3-Diphenylpropanoyl)-4-(3-pyridylcyanomethyl)piperazine]",0.12 mg/kg
16,"COc1ccc(C(=CC(=O)N2CCN(C(C#N)c3cccnc3)CC2)c2ccc(OC)cc2)cc1.Cl.Cl (stereo not shown) [Compound 26, 1-(3,3-bis(4-methoxyphenyl)propenoyl)-4-(3-pyridylcyanomethyl)piperazine, dihydrochloride]",0.17 mg/kg
17,"N#CC(c1cccnc1)N1CCN(C(=O)C=C(c2ccccc2)c2ccccc2)CC1 (stereo not shown) [Compound 17, 1-(3,3-Diphenylpropenoyl)-4-(3-pyridylcyanomethyl)piperazine]",0.049 mg/kg

row,Compound,ED50
1,"N#CC(c1cccnc1)N1CCN(C(=O)C(Cc2ccccc2)Cc2ccccc2)CC1 (stereo not shown) [Compound 13, 1-(2-Phenylmethyl-3-phenylpropanoyl)-4-(3-pyridylcyanomethyl) piperazine, dichlorhydrate]",0.68 mg/kg
2,"N#CC(c1cccnc1)N1CCN(C(=O)C(CCc2ccccc2)c2ccccc2)CC1 (stereo not shown) [Compound 11, 1-(2,4-Diphenylbutanoyl)-4-(3-pyridylcyanomethyl)piperazine]",0.73 mg/kg
3,"N#CC(c1cccnc1)N1CCN(C(=O)C(=Cc2ccccc2)c2ccccc2)CC1 (stereo not shown) [Compound 16, 1-(2,3-Diphenylpropenoyl)-4(3-pyridylcyanomethyl)piperazine]",0.17 mg/kg
4,"N#CC(c1cccnc1)N1CCN(C(=O)CC(O)(c2ccccc2)c2ccccc2)CC1 (stereo not shown) [Compound 28, 1-(3,3-Diphenyl-3-hydroxypropanoyl)-4-(3-pyridylcyanomethyl)piperazine]",0.061 mg/kg
5,"Cl.Cl.N#CC(c1ccncc1)N1CCN(C(=O)CC(c2ccccc2)c2ccccc2)CC1 (stereo not shown) [Compound 67, 1-(3,3-diphenylpropanoyl)-4-(4-pyridylcyanomethyl)piperazine, dihydrochloride]",0.034 mg/kg
6,"N#CC(c1cccnc1)N1CCN(C(=O)CN(CCCc2ccccc2)Cc2ccccc2)CC1 (stereo not shown) [Compound 41, 1-(N-benzyl-N-(3-phenylpropyl)aminoacetyl)-4-(3-pyridylcyanomethyl) piperazine, trihydrochloride]",1.5 mg/kg
7,"N#CC(c1cccnc1)N1CCN(C(=O)CNC(c2ccccc2)c2ccc(Cl)cc2)CC1 (stereo not shown) [Compound 46, 1-(N-(1-(4-chlorophenyl)-1-phenylmethyl)aminoacetyl)-4-(3-pyridylcyanomethyl) piperazine, trihydrochloride]",0.13 mg/kg
8,"CN(CC(=O)N1CCN(C(C#N)c2cccnc2)CC1)C(c1ccccc1)c1ccccc1 (stereo not shown) [Compound 45, 1-(N-diphenylmethyl-N-methylaminoacetyl)-4-(3-pyridylcyanomethyl) piperazine, trihydrochloride]",0.33 mg/kg
9,"N#CC(c1cccnc1)N1CCN(C(=O)C=Cc2ccccc2)CC1 (stereo not shown) [Compound 15, 1-(3-Phenylpropenoyl)-4-(3-pyridylcyanomethyl)piperazine, dichlorhydrate]",0.24 mg/kg
10,"N#CC(c1cccnc1)N1CCN(C(=O)CN(Cc2ccccc2)c2ccccc2)CC1 (stereo not shown) [Compound 38, 1-(N-benzyl-N-phenylaminoacetyl)-4-(3-pyridylcyanomethyl)piperazine]",0.42 mg/kg
11,"N#CC(c1cccnc1)N1CCN(C(=O)CCCc2ccccc2)CC1 (stereo not shown) [Compound 7, 1-(4-Phenylbutanoyl)-4-(3-pyridylcyanomethyl)piperazine]",5 mg/kg
12,"Cl.Cl.Cl.N#CC(c1cccnc1)N1CCN(C(=O)CNc2cccc3ccccc23)CC1 (stereo not shown) [Compound 34, 1-(N-(1-naphthyl)aminoacetyl)-4-(3-pyridylcyanomethyl)piperazine, trihydrochloride]",3 mg/kg
13,"N#CC(c1cccnc1)N1CCN(C(=O)CCc2ccccc2)CC1 (stereo not shown) [Compound 6, 1-(3-Phenylpropanoyl)-4-(3-pyridylcyanomethyl)piperazine, dichlorhydrate]",1.2 mg/kg
14,"N#CC(c1ccncc1)N1CCN(C(=O)CNC(=O)C(c2ccccc2)c2ccccc2)CC1 (stereo not shown) [Compound 57, 1-(N-(diphenylacetyl)aminoacetyl)-4-(4-pyridylcyanomethyl)piperazine]",0.47 mg/kg
15,"Cl.Cl.Cl.N#CC(c1cccnc1)N1CCN(C(=O)CNC(Cc2ccccc2)c2ccccc2)CC1 (stereo not shown) [Compound 52, 1-(N-(1,2-diphenylethyl)aminoacetyl)-4-(3-pyridylcyanomethyl)piperazine, trihydrochloride]",0.34 mg/kg
16,"CCCCCCCC(=O)N1CCN(C(C#N)c2cccnc2)CC1.Cl (stereo not shown) [Compound 19, 1-(Octanoyl)-4-(3-pyridylcyanomethyl)piperazine hydrochloride]",1.2 mg/kg
17,"N#CC(c1ccncc1)N1CCN(C(=O)CC(O)(c2ccccc2)c2ccccc2)CC1 (stereo not shown) [Compound 29, 1-(3,3-Diphenyl-3-hydroxypropanoyl)-4-(4-pyridylcyanomethyl)piperazine]",0.061 mg/kg
